The values that follow come from patent publication US4971990A, “Phenoxyethylamine derivatives, for preparing the same and composition for exhibiting excellent α1 -blocking activity containing the same” (Hokuriku Pharmaceutical Co., Ltd., priority 1988, dated 1990).

Assay [1] deals with T1, dopamine D2-receptor (Rattus norvegicus, UniProt P61169).
T1 construct: The homogenates were centrifuged and synaptic membrane fractions were obtained; from tissue; host or cells: brain striatum, synaptic membrane fraction, male Wistar rat
The experiment in a line: Dopamine D2-receptor radioligand-binding assay (3H-spiperone, brain striatum membranes). The arrangement: species or system rat (male Wistar). The protocol: Dopamine D2 -receptor radioligand-binding assay
Method: These experiments were done according to the method of Coward, D et al. (Naunyn-Schmiedeberg's Archives of Pharmacology (1987)335, 115-122). Briefly, brain striatum were isolated from male Wistar rats (about 200 g b.w.). The tissues were homogenaized in ice-cold 50 mM Tris buffer (pH7.4) with a polytron and centrifuged at 50,000 g for 15 min.. The pellets were homogenaized in the same Tris buffer and incubated for 5 min. at 37° C. The homogenates were centrifuged and synaptic membrane fractions were obtained. The membrane fractions were incubated with ^3 H-spiperone and various concentrations of the test compounds for 50 min. at 25° C. The reaction was terminated by filtration on a GF/B glass filter under vacuum. The radioactivity on the filter was measured using a liquid scintillation counter. The test compounds' dissociation constants (Ki) were determined according to the following equation.
IC50 : the test compound concentration needed to inhibit 50% of ^3 H-spiperone binding calculated by pseudo-Hill plot.
L : ^3 H-spiperone concentration
Kd : ^3 H-spiperone dissociation constant calculated by Scatchard plot.
The pKi values was then expressed as the negative logarithum of Ki. This value represents an affinity of the test compound to dopamine D2 -receptors. Non-specific binding of ^3 H-spiperone was determined in the presence of 10^-5 M sulpiride. Protein concentration was determined by the method of Lowry.

The test system of assay [2] is α1-adrenoceptor. The experiment in a line: α1-adrenoceptor blocking action (noradrenaline concentration-response in isolated thoracic aorta). The conditions noted are these: for pA2 value: negative logarithm of KB (M), noradrenaline as agonist, rabbit thoracic aorta, 30 min exposure, 10^-6 M propranolol; for α1-adrenoceptor selectivity 10^(pA2-pKi): α1-adrenoceptors (pA2, rabbit aorta) compared to dopamine D2-receptors (pKi, rat striatum). It counts as cell-based, rabbit (Japanese white, male). The protocol:
α1 -adrenoceptor blocking action
Method: The thoracic aorta were isolated from male rabbits (Japanese white, about 2.5 kg b.w.) and helically cut. The preparations were suspended in Krebs-Henseleit solution maintained at 37° C. and aerated with a gas mixture of 95%O2 +5%CO2. Responses to drugs were recorded isometrically under a tension of 2 g. After an equilibration period of about 60 min., cumulative concentration-response curves for noradrenaline were constructed. The preparations were exposed to the test compounds for 30 min. before rechallenge with noradrenaline. The dose ratio was obtained from the ratio of an ED50 value (the concentration needs to produce the half maximum response) of noradrenaline in the presence and absence of the test compound. The test compounds dissociation constants (KB) were determined according to the following equation.
KB =[concentration of the test compound (M)/(dose ratio-1)]
The pA2 values were then expressed as the negative logarithm of KB.
This value represents the blocking activity of a test compound to α1 -adrenoceptors. In these experimental periods, 10^-6 M propranolol was treated to block β-adrenoceptors. The results shown in Table 1-a indicate that the α1 -adrenoceptor blocking activites of the test compounds are almost the as same as that of YM-12617.
The selectivity of the test compound to α1 -adrenoceptors compared to dopamine D2 -receptors is determined according to the following equation.
α1 -adrenoceptor selectivity =10^(pA 2^-pK i^)

The mark [3] stands for this setting: 3H-spiperone, rat striatum synaptic membranes, 50 min at 25° C., non-specific binding with 10^-5 M sulpiride, read-out: pKi value (converted).

Counter-ions that a name gives are not always drawn. Like-named read-outs stand apart in the source and are kept apart here.

T1 sequence (P61169 whole entry): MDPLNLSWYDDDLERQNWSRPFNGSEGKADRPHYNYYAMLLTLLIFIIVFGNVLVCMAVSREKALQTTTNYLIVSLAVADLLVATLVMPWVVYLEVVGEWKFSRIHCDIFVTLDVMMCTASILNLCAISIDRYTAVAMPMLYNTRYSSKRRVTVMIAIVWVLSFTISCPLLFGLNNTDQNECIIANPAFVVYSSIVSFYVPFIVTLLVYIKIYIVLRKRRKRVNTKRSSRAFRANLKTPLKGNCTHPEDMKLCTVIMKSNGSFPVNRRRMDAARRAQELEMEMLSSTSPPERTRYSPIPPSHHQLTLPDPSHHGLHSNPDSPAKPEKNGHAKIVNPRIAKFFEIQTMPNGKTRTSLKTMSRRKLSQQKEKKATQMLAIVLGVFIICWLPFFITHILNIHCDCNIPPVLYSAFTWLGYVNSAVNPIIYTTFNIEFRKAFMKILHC

For `CCOc1ccccc1OCCNC(C)Cc1ccc(OC)c(S(N)(=O)=O)c1` (racemic) [YM-12617, 5-[2-[[2-(2-ethoxyphenoxy)ethyl]amino]propyl]-2-methoxybenzene-sulfonamidehydrochloride, reference compound], the Ki in assay [1] (setting [3]) was 20.9 nM. Further, in assay [2], the pA2 value is reported as 9.38 and the “α1-adrenoceptor selectivity 10^(pA2-pKi)” value stood at 50.
For `COc1ccc(F)cc1OCCNC(C)Cc1ccc(OC)c(S(N)(=O)=O)c1` (stereo not drawn) [Example 1, 5-[2-[2-(5-Fluoro-2-methoxyphenoxy)ehtylamino]propyl]-2-methoxybenzenesulfonamide hydrochloride], in that order: 120 nM, 9.45 and 339.
For `CCOc1ccc(CC(C)NCCOc2cc(F)ccc2OC)cc1S(N)(=O)=O` (stereo not drawn) [Example 2, 2-Ethoxy-5-[2-[2-(5-fluoro-2-methoxyphenoxy)ethylamino]propyl] benzenesulfonamide hydrochloride] the same measures were 166 nM, 9.05 and 186.
`CCOc1ccc(F)cc1OCCNC(C)Cc1ccc(OCC)c(S(N)(=O)=O)c1` (stereo not drawn) [Example 5, 2-Ethoxy-5-[2-[2-(2-ethoxy-5-fluorophenoxy)ethylamino]propyl] benzenesulfonamide hydrochloride] showed a Ki in assay [1] of 83.2 nM. Besides, in assay [2], the pA2 value is reported as 8.98 and the “α1-adrenoceptor selectivity 10^(pA2-pKi)” value was found to be 79.
As to `CNS(=O)(=O)c1cc(CC(C)NCCOc2cc(F)ccc2OC)ccc1OC.O=C(O)C(=O)O` (stereo not drawn) [Example 9, 5-[2-[2-(5-Fluoro-2-methoxyphenoxy)ethylamino]propyl]-2-methoxy-N-methylbenzenesulfonamide oxalate], in assay [1], the Ki was 93.3 nM. Besides, the pA2 value in assay [2] is on record as 9.34.
With `COc1ccc(F)cc1OCCNC(C)Cc1ccc(OC)c(S(=O)(=O)N(C)C)c1` (stereo not drawn) [Example 10, 5-[2-[2-(5-Fluoro-2-methoxyphenoxy)ethylamino]propy]-2-methoxy-N,N-dimethylbenzenesulfonamide oxalate], in assay [1] (setting [3]), the Ki is 110 nM. Moreover, in assay [2], the pA2 value is recorded as 9.42 and the “α1-adrenoceptor selectivity 10^(pA2-pKi)” value stood at 288.
In the case of `COc1ccc(F)cc1OCCNC(C)Cc1ccc(OC)c(S(=O)(=O)N2CCCC2)c1.O=C(O)C(=O)O` (stereo not drawn) [Example 11, 1-[[5-[2-[2-(5-Fluoro-2-methoxyphenoxy)ethylamino]propyl]-2methoxyphenyl]sulfonyl]pyrrolidine oxalate], the Ki in assay [1] is 64.6 nM. In assay [2], this compound came in with a pA2 value of 9.33.
As for `COc1ccc(F)cc1OCCNC(C)Cc1ccc(OC)c(S(=O)(=O)N2CCCCC2)c1` (stereo not drawn) [Example 12, 1-[[5-[2-[2-(5-Fluoro-2-methoxyphenoxy)ethylamino]propyl]-2-methoxyphenyl]sulfonyl]-methoxyphenyl]sulfonyl]piperidine oxalate], the Ki in assay [1] was 89.1 nM. In assay [2], this compound displayed a pA2 value of 9.10.
In assay [1], `CCOc1ccc(F)cc1OCCNC(C)Cc1ccc(OC)c(S(N)(=O)=O)c1.Cl` (stereo not drawn) [Example 14, 5-[2-[2-(2-Ethoxy-5-fluorophenoxy)ethylamino]propyl]-2-methoxybenzenesulfonamide hydrochloride] gave a Ki of 23.4 nM. Further, in assay [2], the pA2 value stood at 9.69 and the “α1-adrenoceptor selectivity 10^(pA2-pKi)” value is 115.
Regarding `CCOc1ccc(F)cc1OCCNC(C)Cc1ccc(OC)c(S(=O)(=O)N(C)C)c1.O=C(O)C(=O)O` (stereo not drawn) [Example 15, 5-[2-[2-(2-Ethoxy-5-fluorophenoxy)ethylamino]propyl]-2-methoxy-N,N-dimethylbenzenesulfonamide oxalate], the Ki in assay [1] is 25.7 nM. For the same compound, in assay [2], the pA2 value was 9.48 and the “α1-adrenoceptor selectivity 10^(pA2-pKi)” value came out at 78.
Regarding `CCCNS(=O)(=O)c1cc(CC(C)NCCOc2cc(F)ccc2OC)ccc1OC` (stereo not drawn) [Example 20, 5-[2[2-(5-Fluoro-2-methoxyphenoxy)ethylamino]propyl]-2-methoxy-N-propylbenzenesulfonamide 1/2fumarate], in assay [1] (setting [3]), the Ki is 129 nM. Moreover, the pA2 value in assay [2] is on record as 9.10.
`CCNS(=O)(=O)c1cc(CC(C)NCCOc2cc(F)ccc2OC)ccc1OC` (stereo not drawn) [Example 21, N-Ethyl-5-[2-(5-fluoro-2-methoxyphenoxy)ethylamino]propyl]-2-methoxy-benzenesulfonamide oxalate]: the Ki in assay [1] is 93.3 nM. The compound further showed a pA2 value in assay [2] of 9.14.
`CCCCNS(=O)(=O)c1cc(CC(C)NCCOc2cc(F)ccc2OC)ccc1OC.O=C(O)C(=O)O` (stereo not drawn) [Example 22, N-Butyl-5-[2-[2-(5-fluoro-2-methoxyphenoxy)ethylamino]propyl]-2-methoxybenzenesulfonamide oxalate] had a Ki in assay [1] of 77.6 nM. In assay [2], this compound gave a pA2 value of 9.08.
In the case of `COc1ccc(F)cc1OCCN[C@H](C)Cc1ccc(OC)c(S(N)(=O)=O)c1.Cl` [Example 34, R-(-)-5-[2-[2-(5-Fluoro-2-methoxyphenoxy)-ethylamino]propyl]-2-methoxybenzenesulfonamide hydrochloride], in assay [1], the Ki is 74.1 nM. Besides, in assay [2], the pA2 value worked out at 9.77 and the “α1-adrenoceptor selectivity 10^(pA2-pKi)” value stood at 437.
